The test system of this assay is subjects with NAFLD and increased liver stiffness. The assay can be described thus: Clinical Trial B: liver steatosis by MRI-PDFF. The format is in vivo, human. The settings on record: 0.4 mg OD s.c. The procedure: A randomised, double-blind, placebo-controlled, parallel group, multi-centre phase 1 trial was carried out to investigate the effect of 0.4 mg semaglutide once-daily (OD) in 67 subjects with NAFLD and increased liver stiffness. Subjects received once daily either (i) semaglutide of 0.05 mg for 4 weeks, 0.1 mg for 4 weeks, 0.2 mg for 4 weeks, 0.3 mg for 4 weeks, and then 0.4 mg for the remaining trial period, or (ii) placebo in injection volumes corresponding to (i). Administration was performed via subcutaneous injection using (a) an aqueous solution comprising 1.0 mg/ml semaglutide, 1.42 mg/ml disodium hydrogen phosphate dihydrate, 14.0 mg/ml propylene glycol, 5.50 mg/ml phenol at pH 7.4, or (b) a placebo solution comprising the same ingredients as (a) except no semaglutide. Inclusion criteria for subjects in the trial comprised (i) liver steatosis of at least 10% measured by magnetic resonance imaging proton density fat fraction (MRI-PDFF) at screening, (ii) liver stiffness between 2.50 and 4.63 kPa (both inclusive) measured by magnetic resonance elastography at screening, (iii) BMI between 25.0 and 40.0 kg/m^2 (both inclusive) at screening, (iv) liver stiffness >6.50 kPa measured via Fibroscan® (manufactured by Echosens, Paris, France) at screening, and (v) for subjects with type 2 diabetes mellitus only, diagnosis of type 2 diabetes mellitus was at least 180 days prior to screening and with HbA1c of no more than 9.5% at screening. Screening was carried out prior to baseline in order to make assessments used to determine subject eligibility. Exclusion criteria for subjects in the trial comprised (i) documented causes of chronic liver disease other than NAFLD including NASH and (ii) no substantial alcohol consumption, defined in the trial as no more than 20 g ethanol per day for women or no more than 30 g ethanol per day for men. Baseline characteristics for all randomised subjects in the trial were shown in Table B. MRI-PDFF is a determination of the percentage of fat in the entire liver and the method is described in e.g. Caussy et al. Hepatology. 2018 August; 68(2):763-772.

For the substance “N-epsilon26-[2-(2-{2-[2-(2-{2-[(S)-4-Carboxy-4-(17-carboxyheptadecanoyl-amino)butyrylamino]ethoxy}ethoxy)acetylamino]ethoxy}ethoxy)acetyl] [Aib8, Arg34]GLP-1-(7-37) [Semaglutide]”, the “Reduction of liver steatosis compared to placebo” value runs as follows: (24 weeks of trial) 30%; (48 and 72 weeks of trial) “about 50%”. Besides, the “Subjects with at least 30% reduction in liver steatosis” value reads like this: (24 weeks of trial) “about 65%”; (48 and 72 weeks of trial) 74-77%. For the same substance, the “Change in liver steatosis by MRI-PDFF compared to baseline, Estimated mean ratio to baseline” value (shortened to “Change … Estimated mean ratio to baseline”) (trial week 24) is recorded as 0.64; the “Change … Estimated mean ratio to baseline” value (trial week 48) was 0.42; the “Change … Estimated mean ratio to baseline” value (trial week 72) is 0.42. Also, the “Proportion of subjects with 30% or greater reduction in liver steatosis by MRI-PDFF compared to baseline” value is listed as 64.7 (p = 0.0006) % (trial week 24), 76.5 (p = 0.0001) % (trial week 48) and 73.5 (p = 0.0006) % (trial week 72).

The record behind these values is patent US11478533B2, “Semaglutide for use in medicine” (Novo Nordisk A/S, priority 2020, dated 2022).
